From patent publication US20040180855A1, “Methods of treating thrombosis with reduced risk of increased bleeding times” (priority 2003, published 2004)

Legend:
Plasmin = target: T1, Plasmin (Homo sapiens, UniProt P00747); assay: Selectivity assay plasmin; assay type: biochemical; conditions: Table 3
T1 construct: Plasmin (Kabi Vitrum) was measured as for thrombin; purchased Kabi Vitrum

[1] = test system: FeCl2-induced carotid artery thrombosis; assay: Arterial thrombosis model (FeCl2 carotid artery); assay type: in vivo, rat; conditions: i.v. 12 mg/kg plus 12 mg/kg/hr
Method: General Surgical Preparation Male Sprague Dawley rats (310 to 390 g) were anesthetized with Na-pentobarbital (50 mg/kg i.p.). The left jugular vein was cannulated with PE-50 tubing for drug administration, and the trachea was intubated with PE-205 tubing to ensure airway patency. In some animals, a carotid artery was cannulated with PE-50 tubing to obtain blood samples, and a procedure was followed as described in Schumacher et al., “Comparison of Thrombin Active-Site and Exosite Inhibitors and Heparin in Experimental Models of Arterial and Venous Thrombosis and Bleeding,” J. Pharmacol. Exp. Therap., Vol. 267 (1993), at pp. 1237-42; Schumacher et al., Effects of Antithrombotic Drugs in a Rat Model of Aspirin-Insensitive Arterial Thrombosis, Thromb Haemostasis, Vol. 69 (1993), at pp. 509-514; or Schumacher et al., Effect of a Novel Thrombin Active-Site Inhibitor on Arterial and Venous Thrombosis, Eur J Pharmacol., Vol. 259 (1994), at pp. 165-171, each of which is incorporated herein by reference. […]
Arterial Thrombosis The left carotid artery was exposed and a piece of parafilm “M” (American National Can, Greenwich, Conn.) was inserted under the vessel. […] Carotid blood flow (CBF) was monitored continuously on a TA3800 physiologic recorder (Gould, Cleveland, Ohio). Total CBF was determined and normalized as percent of baseline (0 min) flow over 60 min to provide a measure of average blood flow during thrombus formation.
(§1) Statistical Analysis In the venous and arterial thrombosis procedures, treatment effects on thrombus weight, baseline blood flow, and average blood flow during thrombosis were determined by analysis of variance with Dunnett's test for comparison to the vehicle group. […] Treatment effects on bleeding times were determined by analysis of variance with Dunnett's test for comparison to the vehicle group. Both post-treatment and pre-treatment bleeding times and the relative bleeding time increases in sec were analyzed. […]

[2] = test system: stasis-VT (vena cava thrombosis); assay: Venous thrombosis, stasis VT model; assay type: in vivo; conditions: rat stasis VT
Method: as §1, with “General Surgical Preparation Male Sprague Dawley rats (310 to 390 g) were anesthetized with Na-pentobarbital (50 mg/kg i.p.). The left jugular vein was cannulated with PE-50 tubing for drug administration, and the trachea was intubated with PE-205 tubing to ensure airway patency. […] Statistical” for “Statistical”

T1 sequence (P00747 581-810 limits assumed): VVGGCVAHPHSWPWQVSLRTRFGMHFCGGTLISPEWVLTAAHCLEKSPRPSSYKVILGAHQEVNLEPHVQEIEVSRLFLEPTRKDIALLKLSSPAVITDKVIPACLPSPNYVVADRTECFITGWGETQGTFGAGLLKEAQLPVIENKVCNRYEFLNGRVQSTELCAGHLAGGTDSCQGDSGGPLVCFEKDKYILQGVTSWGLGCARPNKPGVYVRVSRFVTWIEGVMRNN
T1 sequence (P00747 97-580 partner limits assumed): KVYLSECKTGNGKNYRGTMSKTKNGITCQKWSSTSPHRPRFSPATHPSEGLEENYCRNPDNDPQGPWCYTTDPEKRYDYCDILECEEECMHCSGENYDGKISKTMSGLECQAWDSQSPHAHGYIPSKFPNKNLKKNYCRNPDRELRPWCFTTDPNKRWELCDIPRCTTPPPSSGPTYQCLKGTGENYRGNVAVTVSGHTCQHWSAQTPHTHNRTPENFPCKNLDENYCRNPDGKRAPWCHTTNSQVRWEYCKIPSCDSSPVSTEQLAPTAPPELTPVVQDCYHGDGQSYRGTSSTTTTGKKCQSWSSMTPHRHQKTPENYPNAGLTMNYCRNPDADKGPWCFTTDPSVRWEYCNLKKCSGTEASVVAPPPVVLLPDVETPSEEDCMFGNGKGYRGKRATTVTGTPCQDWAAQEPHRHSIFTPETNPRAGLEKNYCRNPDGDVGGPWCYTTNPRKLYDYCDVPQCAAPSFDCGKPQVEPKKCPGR

CC(C)(C)NC(=O)N1CCN(C(=O)N2C(=O)[C@H](CCCNC(=N)N)[C@H]2C(=O)O)CC1 [Example 4]
IC50 (Plasmin): 1.7 µM | decrease in thrombus weight ([1]; rat carotid artery, FIG. 2): 73% | average blood flow during thrombosis and vessel patency ([1]; rat): improvement | effect on FeCl2-induced carotid artery thrombosis (carotid blood flow, FIG. 1) ([1]; rat): prevented | effect on thrombus weight ([2]; i.v. 2+2 mg/kg+mg/kg/hr): little effect | reduction in thrombus weight ([2]; i.v. 6+6 mg/kg+mg/kg/hr, FIG. 4): 64%
